By inhibition is commonly meant the change of the read-out against control, counted positive when it falls.

16 compounds from patent publication US12122763B2, “Substituted piperidines for androgen receptor degradation” (UBIX THERAPEUTICS, INC., priority 2020, dated 2024) can be followed below.

For the assay, the target named is T1, Androgen Receptor (AR) protein (Homo sapiens, UniProt P10275, T878A).
T1 construct: endogenous in cells; host or cells: LNCaP
The assay is described as follows: Androgen Receptor (AR) protein degradation assay in LNCaP cells, western blotting. Format: cell-based. To be noted: 20 h; for inhibition at 0.01 µM: 0.01 μM compound; for inhibition at 0.1 µM: 0.1 μM compound; for inhibition at 1 µM: 1 μM compound; for inhibition at 10 µM: 10 μM compound. A digest of the protocol: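 LNCaP prostate cancer cells were cultured 3 days, then treated with compound for 20 h. Lysates in 1% SDS buffer were normalised by BCA, and 8 μg protein was run on 4–12% Bis-Tris gels. AR was immunoblotted with chemiluminescence, using GAPDH/β-actin as loading controls.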
Background: A western blot detects proteins with antibodies after separation by electrophoresis.

T1 sequence (P10275 whole entry T878A): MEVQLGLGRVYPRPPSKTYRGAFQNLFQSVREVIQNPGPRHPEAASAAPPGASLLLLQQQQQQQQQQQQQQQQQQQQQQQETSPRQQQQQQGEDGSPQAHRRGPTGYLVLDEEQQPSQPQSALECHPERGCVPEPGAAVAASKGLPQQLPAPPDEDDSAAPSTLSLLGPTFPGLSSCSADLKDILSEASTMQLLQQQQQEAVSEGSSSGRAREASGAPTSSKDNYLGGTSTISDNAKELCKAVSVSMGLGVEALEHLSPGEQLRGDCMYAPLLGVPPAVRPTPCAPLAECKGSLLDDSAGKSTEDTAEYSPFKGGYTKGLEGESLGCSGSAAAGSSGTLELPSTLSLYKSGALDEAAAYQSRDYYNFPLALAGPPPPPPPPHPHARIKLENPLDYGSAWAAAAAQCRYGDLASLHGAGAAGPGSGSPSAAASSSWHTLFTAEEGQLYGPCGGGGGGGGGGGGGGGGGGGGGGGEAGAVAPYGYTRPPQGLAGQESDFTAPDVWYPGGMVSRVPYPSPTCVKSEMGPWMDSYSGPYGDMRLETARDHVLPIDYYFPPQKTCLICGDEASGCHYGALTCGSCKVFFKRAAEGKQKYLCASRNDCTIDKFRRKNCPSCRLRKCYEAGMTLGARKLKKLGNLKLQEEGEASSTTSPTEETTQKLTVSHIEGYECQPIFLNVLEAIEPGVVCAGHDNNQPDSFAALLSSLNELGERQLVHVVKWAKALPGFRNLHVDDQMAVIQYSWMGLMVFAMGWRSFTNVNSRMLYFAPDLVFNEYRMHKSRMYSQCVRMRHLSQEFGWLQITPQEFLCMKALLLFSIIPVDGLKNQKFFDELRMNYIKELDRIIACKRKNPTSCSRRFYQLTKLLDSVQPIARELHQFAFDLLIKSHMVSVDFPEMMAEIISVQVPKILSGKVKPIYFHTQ
T1 sequence (Q96SW2 whole entry partner): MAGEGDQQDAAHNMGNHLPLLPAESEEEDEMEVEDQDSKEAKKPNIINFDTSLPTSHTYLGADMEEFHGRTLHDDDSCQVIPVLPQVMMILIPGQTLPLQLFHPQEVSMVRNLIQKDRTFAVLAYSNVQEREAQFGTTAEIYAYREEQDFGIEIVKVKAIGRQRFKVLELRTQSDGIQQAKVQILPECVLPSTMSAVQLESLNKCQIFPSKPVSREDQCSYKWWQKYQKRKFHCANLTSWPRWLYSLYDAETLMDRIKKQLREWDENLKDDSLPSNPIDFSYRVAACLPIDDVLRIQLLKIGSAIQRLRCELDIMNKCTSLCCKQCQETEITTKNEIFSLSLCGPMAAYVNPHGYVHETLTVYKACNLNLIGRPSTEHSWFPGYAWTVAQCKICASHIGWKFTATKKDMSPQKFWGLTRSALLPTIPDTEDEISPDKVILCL

For `C[C@H]1CN(CC2CCN(c3ccc(C(=O)NC4CCC(=O)NC4=O)nc3)CC2)CCN1CC1CCN(c2ccc(NC(=O)C3CCN(c4ccc(C#N)c(C(F)(F)F)c4)CC3)nc2)CC1` (stereo partly drawn) [Example 109, 5-(4-(((S)-4-((1-(6-(1-(4-cyano-3-(trifluoromethyl)phenyl)piperidine-4-carboxamido)pyridin-3-yl)piperidin-4-yl)methyl)-3-methylpiperazin-1-yl)methyl)piperidin-1-yl)-N-(2,6-dioxopiperidin-3-yl)picolinamide], the inhibition at 0.01 µM stood at 30%, at 0.1 µM the inhibition was 82% and testing at 1 µM gave an inhibition of 83%.
The compound `CN(CCN1CCN(c2ccc3c(c2)C(=O)N(C2CCC(=O)NC2=O)C3=O)CC1)CC1CCN(c2ccc(NC(=O)C3CCN(c4ccc(C#N)c(C(F)(F)F)c4)CC3)nc2)CC1` (centres unmarked) [Example 110, 1-(4-cyano-3-(trifluoromethyl)phenyl)-N-(5-(4-(((2-(4-(2-(2,6-dioxopiperidin-3-yl)-1,3-dioxoisoindolin-5-yl)piperazin-1-yl)ethyl)(methyl)amino)methyl)piperidin-1-yl)pyridin-2-yl)piperidine-4-carboxamide] registered an inhibition at 0.01 µM of 56%, an inhibition at 0.1 µM of 89% and an inhibition at 1 µM of 88%.
`N#Cc1ccc(N2CCC(C(=O)Nc3ccc(N4CCN(C(=O)CCCCCNc5ccc6c(c5)C(=O)N(C5CCC(=O)NC5=O)C6=O)CC4)cn3)CC2)cc1C(F)(F)F` (centres unmarked) [Example 111, 1-(4-cyano-3-(trifluoromethyl)phenyl)-N-(5-(4-(6-((2-(2,6-dioxopiperidin-3-yl)-1,3-dioxoisoindolin-5-yl)amino)hexanoyl)piperazin-1-yl)pyridin-2-yl)piperidine-4-carboxamide] showed an inhibition at 0.01 µM of 29%, an inhibition at 0.1 µM of 70%, an inhibition at 1 µM of 67% and an inhibition at 10 µM of 67%.
In turn, `N#Cc1ccc(N2CCC(C(=O)Nc3ccc(N4CCN(C(=O)CCCCCNc5ccc6c(c5)C(=O)N(C5CCC(=O)NC5=O)C6=O)CC4)cn3)CC2)cc1Cl` (centres unmarked) [Example 112, 1-(3-chloro-4-cyanophenyl)-N-(5-(4-(6-((2-(2,6-dioxopiperidin-3-yl)-1,3-dioxoisoindolin-5-yl)amino)hexanoyl)piperazin-1-yl)pyridin-2-yl)piperidine-4-carboxamide] gave an inhibition at 0.01 µM of 9%, an inhibition at 0.1 µM of 55%, an inhibition at 1 µM of 50% and an inhibition at 10 µM of 48%.
The compound `N#Cc1ccc(N2CCC(C(=O)Nc3ccc(N4CCN(CCCCCOc5ccc6c(c5)C(=O)N(C5CCC(=O)NC5=O)C6=O)CC4)cn3)CC2)cc1C(F)(F)F` (centres unmarked) [Example 113, 1-(4-cyano-3-(trifluoromethyl)phenyl)-N-(5-(4-(5-((2-(2,6-dioxopiperidin-3-yl)-1,3-dioxoisoindolin-5-yl)oxy)pentyl)piperazin-1-yl)pyridin-2-yl)piperidine-4-carboxamide] gave an inhibition at 0.01 µM of 55%, an inhibition at 0.1 µM of 92% and an inhibition at 1 µM of 87%.
Compound `N#Cc1ccc(N2CCC(C(=O)Nc3ccc(N4CCN(CCCCCOc5ccc6c(c5)C(=O)N(C5CCC(=O)NC5=O)C6=O)CC4)cn3)CC2)cc1Cl` (centres unmarked) [Example 114, 1-(3-chloro-4-cyanophenyl)-N-(5-(4-(5-((2-(2,6-dioxopiperidin-3-yl)-1,3-dioxoisoindolin-5-yl)oxy)pentyl)piperazin-1-yl)pyridin-2-yl)piperidine-4-carboxamide] returned an inhibition at 0.01 µM of 41%, an inhibition at 0.1 µM of 89% and an inhibition at 1 µM of 91%.
In turn, `N#Cc1ccc(N2CCC(C(=O)Nc3ccc(N4CCN(CCCCOc5ccc6c(c5)C(=O)N(C5CCC(=O)NC5=O)C6=O)CC4)cn3)CC2)cc1C(F)(F)F` (centres unmarked) [Example 115, 1-(4-cyano-3-(trifluoromethyl)phenyl)-N-(5-(4-(4-((2-(2,6-dioxopiperidin-3-yl)-1,3-dioxoisoindolin-5-yl)oxy)butyl)piperazin-1-yl)pyridin-2-yl)piperidine-4-carboxamide] yielded an inhibition at 0.01 µM of 18%, an inhibition at 0.1 µM of 89% and an inhibition at 1 µM of 87%.
`N#Cc1ccc(N2CCC(C(=O)Nc3ccc(N4CCN(CCCCOc5ccc6c(c5)C(=O)N(C5CCC(=O)NC5=O)C6=O)CC4)cn3)CC2)cc1Cl` (centres unmarked) [Example 116, 1-(3-chloro-4-cyanophenyl)-N-(5-(4-(4-((2-(2,6-dioxopiperidin-3-yl)-1,3-dioxoisoindolin-5-yl)oxy)butyl)piperazin-1-yl)pyridin-2-yl)piperidine-4-carboxamide] showed an inhibition at 0.01 µM of 24%, an inhibition at 0.1 µM of 43% and an inhibition at 1 µM of 53%.
The compound `N#Cc1ccc(N2CCC(C(=O)Nc3ccc(N4CCN(CCOC5CCN(c6ccc7c(c6)C(=O)N(C6CCC(=O)NC6=O)C7=O)CC5)CC4)cn3)CC2)cc1C(F)(F)F` (centres unmarked) [Example 117, 1-(4-cyano-3-(trifluoromethyl)phenyl)-N-(5-(4-(2-((1-(2-(2,6-dioxopiperidin-3-yl)-1,3-dioxoisoindolin-5-yl)piperidin-4-yl)oxy)ethyl)piperazin-1-yl)pyridin-2-yl)piperidine-4-carboxamide] returned an inhibition at 0.01 µM of 35%, an inhibition at 0.1 µM of 84% and an inhibition at 1 µM of 94%.
`N#Cc1ccc(N2CCC(C(=O)Nc3ccc(N4CCN(CCOC5CCN(c6ccc7c(c6)C(=O)N(C6CCC(=O)NC6=O)C7=O)CC5)CC4)cn3)CC2)cc1Cl` (centres unmarked) [Example 118, 1-(3-chloro-4-cyanophenyl)-N-(5-(4-(2-((1-(2-(2,6-dioxopiperidin-3-yl)-1,3-dioxoisoindolin-5-yl)piperidin-4-yl)oxy)ethyl)piperazin-1-yl)pyridin-2-yl)piperidine-4-carboxamide] gave an inhibition at 0.01 µM of 34%, an inhibition at 0.1 µM of 62% and an inhibition at 1 µM of 88%.
As for `N#Cc1ccc(N2CCC(C(=O)Nc3ccc(N4CCN(CCC5CCN(c6ccc7c(c6)C(=O)N(C6CCC(=O)NC6=O)C7=O)CC5)CC4)cn3)CC2)cc1C(F)(F)F` (centres unmarked) [Example 119, 1-(4-cyano-3-(trifluoromethyl)phenyl)-N-(5-(4-(2-(1-(2-(2,6-dioxopiperidin-3-yl)-1,3-dioxoisoindolin-5-yl)piperidin-4-yl)ethyl)piperazin-1-yl)pyridin-2-yl)piperidine-4-carboxamide], 0.01 µM produced 21% inhibition, the inhibition at 0.1 µM was found to be 90% and the inhibition at 1 µM was determined as 26%.
As to `N#Cc1ccc(N2CCC(C(=O)Nc3ccc(N4CCN(CCC5CCN(c6ccc7c(c6)C(=O)N(C6CCC(=O)NC6=O)C7=O)CC5)CC4)cn3)CC2)cc1Cl` (centres unmarked) [Example 120, 1-(3-chloro-4-cyanophenyl)-N-(5-(4-(2-(1-(2-(2,6-dioxopiperidin-3-yl)-1,3-dioxoisoindolin-5-yl)piperidin-4-yl)ethyl)piperazin-1-yl)pyridin-2-yl)piperidine-4-carboxamide], the inhibition at 0.01 µM turned out to be 0%, 0.1 µM produced 88% inhibition and at 1 µM the inhibition was 96%.
`N#Cc1ccc(N2CCC(C(=O)Nc3ccc(N4CC5(CCN(CC6CCN(c7ccc8c(c7)C(=O)N(C7CCC(=O)NC7=O)C8=O)CC6)CC5)C4)cn3)CC2)cc1C(F)(F)F` (centres unmarked) [Example 121, 1-(4-cyano-3-(trifluoromethyl)phenyl)-N-(5-(7-((1-(2-(2,6-dioxopiperidin-3-yl)-1,3-dioxoisoindolin-5-yl)piperidin-4-yl)methyl)-2,7-diazaspiro[3.5]nonan-2-yl)pyridin-2-yl)piperidine-4-carboxamide] yielded an inhibition at 0.01 µM of 81%, an inhibition at 0.1 µM of 98% and an inhibition at 1 µM of 98%.
In turn, `N#Cc1ccc(N2CCC(C(=O)Nc3ccc(N4CC5(CCN(CC6CCN(c7ccc8c(c7)C(=O)N(C7CCC(=O)NC7=O)C8=O)CC6)CC5)C4)cn3)CC2)cc1Cl` (centres unmarked) [Example 122, 1-(3-chloro-4-cyanophenyl)-N-(5-(7-((1-(2-(2,6-dioxopiperidin-3-yl)-1,3-dioxoisoindolin-5-yl)piperidin-4-yl)methyl)-2,7-diazaspiro[3.5]nonan-2-yl)pyridin-2-yl)piperidine-4-carboxamide] displayed an inhibition at 0.01 µM of 71%, an inhibition at 0.1 µM of 76% and an inhibition at 1 µM of 74%.
For `N#Cc1ccc(N2CCC(C(=O)Nc3ccc(N4CC5(CCN(CC6CN(c7ccc8c(c7)C(=O)N(C7CCC(=O)NC7=O)C8=O)C6)CC5)C4)cn3)CC2)cc1C(F)(F)F` (centres unmarked) [Example 123, 1-(4-cyano-3-(trifluoromethyl)phenyl)-N-(5-(7-((1-(2-(2,6-dioxopiperidin-3-yl)-1,3-dioxoisoindolin-5-yl)azetidin-3-yl)methyl)-2,7-diazaspiro[3.5]nonan-2-yl)pyridin-2-yl)piperidine-4-carboxamide], in that order: 55%, 91% and 97%.
The compound `N#Cc1ccc(N2CCC(C(=O)Nc3ccc(N4CC5(CCN(CC6CN(c7ccc8c(c7)C(=O)N(C7CCC(=O)NC7=O)C8=O)C6)CC5)C4)cn3)CC2)cc1Cl` (centres unmarked) [Example 124, 1-(3-chloro-4-cyanophenyl)-N-(5-(7-((1-(2-(2,6-dioxopiperidin-3-yl)-1,3-dioxoisoindolin-5-yl)azetidin-3-yl)methyl)-2,7-diazaspiro[3.5]nonan-2-yl)pyridin-2-yl)piperidine-4-carboxamide] yielded an inhibition at 0.01 µM of 52%, an inhibition at 0.1 µM of 88% and an inhibition at 1 µM of 96%.
